Results: patent publication US8309725B2 (priority 2007, dated 2012)

Molecular target: T1, κ receptor (Cavia porcellus, UniProt P41144)
T1 construct: sucrose solution (0.32 M) was added to five guinea pig brains and the mixture was homogenized; from tissue; host or cells: whole guinea pig brain membrane homogenate
Test: biochemical
Type: binding, guinea pig
Conditions: not given

T1 sequence (P41144 whole entry): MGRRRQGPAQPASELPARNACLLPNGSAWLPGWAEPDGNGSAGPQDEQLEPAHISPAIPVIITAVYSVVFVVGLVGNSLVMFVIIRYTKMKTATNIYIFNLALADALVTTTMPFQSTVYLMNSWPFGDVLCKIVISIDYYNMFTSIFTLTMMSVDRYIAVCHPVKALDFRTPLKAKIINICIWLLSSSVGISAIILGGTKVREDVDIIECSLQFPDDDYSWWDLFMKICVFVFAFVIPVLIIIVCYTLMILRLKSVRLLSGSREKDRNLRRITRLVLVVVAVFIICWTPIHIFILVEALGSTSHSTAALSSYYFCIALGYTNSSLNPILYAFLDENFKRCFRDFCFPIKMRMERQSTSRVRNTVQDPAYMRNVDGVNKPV

Compound	Ki [nM]
COC(=O)CC(=O)N1CCN(C(=O)Cc2ccc(Cl)c(Cl)c2)[C@H]2[C@H]1CCC[C@@H]2N1CCCC1 (racemic) [Example 13, methyl 3-{(4aRS,8SR,8aRS)-1-[2-(3,4-dichlorophenyl)acetyl]-8-(pyrrolidin-1-yl)-perhydroquinoxalin-4-yl}-3-oxopropionate]	11 ± 5.6
CCCCN1CCN(C(=O)Cc2ccc(Cl)c(Cl)c2)[C@H]2[C@H]1CCC[C@@H]2N1CCCC1 (racemic) [Example 19, 1-[(4aRS,8SR,8aRS)-4-butyl-8-(pyrrolidin-1-yl)perhydroquinoxalin-1-yl]-2-(3,4-dichlorophenyl)-ethan-1-one]	3.1 ± 1.8
COc1ccc(CN2CCN(C(=O)Cc3ccc(Cl)c(Cl)c3)[C@H]3[C@H]2CCC[C@@H]3N2CCCC2)cc1 (racemic) [Example 20, 2-(3,4-dichlorophenyl)-1-[(4aRS,8SR,8aRS)-4-(4-methoxybenzyl)-8-(pyrrolidin-1-yl)-perhydroquinoxalin-1-yl]ethan-1-one]	6.8 ± 2
O=C(Cc1ccc(Cl)c(Cl)c1)N1CCN(Cc2ccccn2)[C@@H]2CCC[C@H](N3CCCC3)[C@H]21 (racemic) [Example 21, 2-(3,4-dichlorophenyl)-1-{(4aRS,8SR,8aRS)-4-[(pyridin-2-yl)methyl]-8-(pyrrolidin-1-yl)perhydroquinoxalin-1-yl}ethan-1-one]	4.2 ± 2.6
O=C(Cc1ccc(Cl)c(Cl)c1)N1CCN(Cc2cccnc2)[C@@H]2CCC[C@H](N3CCCC3)[C@H]21 (racemic) [Example 22, 2-(3,4-dichlorophenyl)-1-{(4aRS,8SR,8aRS)-4-[(pyridin-3-yl)methyl]-8-(pyrrolidin-1-yl)perhydroquinoxalin-1-yl}ethan-1-one]	0.13 ± 0.02

Same assay, conditions: read-out: κ: Ki ± SEM

Compound	Ki [nM]
O=C(Cc1ccc(Cl)c(Cl)c1)N1CCN(Cc2ccccc2)C2CCCC(N3CCC(O)C3)C21 (stereo not drawn) [Example 5, 1-{(4aRS,8SR,8aSR)-4-benzyl-8-[(3SR)- and (3RS)-3-hydroxypyrrolidin-1-yl]perhydroquinoxalin-1-yl}-2-(3,4-dichlorophenyl)ethan-1-one]	6.6 ± 1.4
O=C(c1ccccc1)N1CCN(C(=O)Cc2ccc(Cl)c(Cl)c2)C2C(N3CCC(O)C3)CCCC21 (stereo not drawn) [Example 14, 1-{(4aRS,8SR,8aSR)-4-benzoyl-8-[(3SR)- and (3RS)-3-hydroxypyrrolidin-1-yl]-perhydroquinoxalin-1-yl}-2-(3,4-dichlorophenyl)ethan-1-one]	22 ± 5.6
COC(=O)N1CCN(C(=O)Cc2ccc(Cl)c(Cl)c2)C2C(N3CCC(O)C3)CCCC21 (stereo not drawn) [Example 15, methyl{(4aRS,8SR,8aRS)-1-[2-(3,4-dichlorophenyl)acetyl]-8-[(3SR)- and (3RS)-3-hydroxypyrrolidin-1-yl]-perhydroquinoxalin-4-yl}carboxylate]	11 ± 2.8
O=C(O)CC(=O)N1CCN(C(=O)Cc2ccc(Cl)c(Cl)c2)C2C(N3CCC(O)C3)CCCC21 (stereo not drawn) [Example 16, 3-{(4aRS,8SR,8aRS)-1-[2-(3,4-dichlorophenyl)acetyl]-8-[(3SR)- and (3RS)-3-hydroxypyrrolidin-1-yl]-perhydroquinoxalin-4-yl}-3-oxopropionic acid]	482 ± 113
COC(=O)CC(=O)N1CCN(C(=O)Cc2ccc(Cl)c(Cl)c2)C2C(N3CCC(O)C3)CCCC21 (stereo not drawn) [Example 17, methyl 3-{(4aRS,8SR,8aRS)-1-[2-(3,4-dichlorophenyl)acetyl]-8-[(3SR)- and (3RS)-3-hydroxypyrrolidin-1-yl]-perhydroquinoxalin-4-yl}-3-oxopropionate]	18 ± 2.2
O=C(Cc1ccc(Cl)c(Cl)c1)N1CCN(Cc2cccnc2)C2CCCC(N3CCC(O)C3)C21 (stereo not drawn) [Example 25, 2-(3,4-dichlorophenyl)-1-{(4aRS,8SR,8aSR)-4-[(pyridin-3-yl)methyl]-8-[(3SR)- and (3RS)-3-hydroxypyrrolidin-1-yl]perhydroquinoxalin-1-yl}ethan-1-one]	3.8 ± 0.7

System: male NMRI mice
Test: not given
Conditions: mouse, in vivo

Compound	reduction in the pain in the models of the centrally mediated types of pain
2-(3,4-dichlorophenyl)-1-{(4aRS,8SR,8aSR)-8-[(3SR)-3-hydroxypyrrolidin-1-yl]perhydroquinoxalin-1-yl}ethan-1-one and 2-(3,4-dichlorophenyl)-1-{(4aRS,8SR,8aSR)-8-[(3RS)-3-hydroxypyrrolidin-1-yl]perhydroquinoxalin-1-yl}ethan-1-one [Example 2]	no significant reduction in the pain
